The test system of one assay is 282377-053-R-J1-PDC complex spheroids, viability. Kind of assay: Anticancer human tumor 282377-053-R-J1-PDC patient-derived colon adenocarcinoma cell line growth inhibition [GQUAD]. The following applies: second compound 0.0316 µM; first compound 3.16 µM; stronger effect = lower value. An excerpt: DNA G-quadruplex Stabilizer Agents in Combinations in Complex Spheroids
A high-throughput screen of multi-cell type tumor spheroids was designed to identify active combinations of DNA G-quadruplex stabilizer agents and targeted small molecules. Complex spheroids include a stromal component modeled by human endothelial cells (HUVEC) and fibroblasts modeled by human mesenchymal stem cells (MSCs). The concentration ranges selected for each drug and investigational agent were based upon clinically achievable concentrations if the clinical Cmax of the agent was known.
Compounds. The drugs and investigational agents: pidnarulex (CX-5461; NSC782164), APTO-253 (NSC789042), BRACO-19 (NSC847499), peposertib (NSC802822), ceralasertib (NSC780249), elimusertib (NSC800525), camonsertib (NSC841442), AZD-1390 (NSC803789), olaparib (NSC753686), talazoparib (NSC767125), ART-558 (NSC835418), sotorasib (NSC818433), MRTX-1133 (NSC836407), SN-38 (NSC673596), topotecan (NSC609699), etoposide (NSC141540), doxorubicin (NSC123127), gemcitabine (NSC613327), 5-fluorouracil (NSC19893), paclitaxel (NSC125973), vemurafenib (NSC761431), panobinostat (NSC761190), R-306465 (JNJ-16241199; NSC773264), adavosertib (NSC754352), TP-3654 (NSC805149), carboplatin (NSC241240), KSQ-4279 (NSC840948), and staurosporine (NSC755774) were obtained from the National Cancer Institute (NCI) Developmental Therapeutics Program Chemical Repository (34). The FDA-approved anticancer drug set is available from the NCI Developmental Therapeutics Program. […] The stock solutions were prepared in dimethyl sulfoxide (DMSO, Sigma-Aldrich, St. Louis, MO, cat. D2650) at 800-fold the tested concentration and stored at -70 degrees C prior to their use. All drugs and investigational agents were tested over a range starting from a high concentration at or near the clinical Cmax and decreasing in half-log increments. If the clinical Cmax for an agent had not been determined, the highest concentration tested was 10 microM.
2.3 Cell Culture. All cells were maintained in an incubator at 37 degrees C and 5% CO2 with 95% humidity. The PDC lines were cultured according to standard operating procedures established by the NCI PDMR. All PDCs were thawed and cultured in Matrigel-coated flasks prepared with a working solution of 1X Ham's F-12 nutrient mix, without supplementation (Invitrogen, cat. 11765054), 100 U/mL penicillin-streptomycin (Invitrogen, cat. 15140122), and 2.5% Matrigel (Corning Inc., cat. 354248) for the first three passages. The 857933-349-R-J2-PDC line was cultured in 6C/Colon 1B media, which includes advanced DMEM/F-12 (Thermo Fisher Scientific, cat. 12634028), 10 mM HEPES (Thermo Fisher Scientific, cat. 15630080), 1X GlutaMAX supplement (Thermo Fisher Scientific, cat. 35050061), 0.1 mg/mL primocin (InvivoGen, cat. ant-pm-2), 10% defined fetal bovine serum, heat inactivated (HyClone Laboratories Inc., cat. SH30070.03HI), 50% L-WRN conditioned media (ATCC, cat. CRL-3276), 1.25 mM N-Acetyl-L-cysteine (Sigma-Aldrich, cat. A9165), 10 mM nicotinamide (Sigma-Aldrich, cat. N0636), 1X B-27 supplement (Thermo Fisher Scientific, cat. 17504044), 1X N-2 supplement (Thermo Fisher Scientific, cat. 17502048), 10 microM Y-27632 dihydrochloride (Tocris Bioscience, cat. 1254), and 50 ng/mL human EGF recombinant protein (Thermo Fisher Scientific, cat. PHG0311). The 485176-168-R4-J1-PDC line was cultured in Panc media, which includes all 6C/Colon 1B media components plus 100 ng/mL human FGF-10 (Thermo Fisher Scientific, cat. 100-26), 500 nM SB-431542 (Selleckchem, cat. S1067), and gastrin (Tocris, cat. 3006).
[…]
For `CC(C)n1c(=O)n(C)c2cnc3cc(F)c(-c4ccc(OCCCN5CCCCC5)nc4)cc3c21` + Cc1[nH]c2ccc(F)cc2c1-c1nc2c3cccnc3c3ncccc3c2[nH]1, the viability, T/C (in general, the result in the treated group divided by that in the control group, in per cent) is 101%.
Same read-out and setting: then `O=C(c1cc(Cc2n[nH]c(=O)c3ccccc23)ccc1F)N1CCN(C(=O)C2CC2)CC1` + Cc1[nH]c2ccc(F)cc2c1-c1nc2c3cccnc3c3ncccc3c2[nH]1, with 110%.

Staying with this assay, now noted: second compound 0.0316 µM; first compound 10 µM; stronger effect = lower value.
As for `CCCS(=O)(=O)Nc1ccc(F)c(C(=O)c2c[nH]c3ncc(-c4ccc(Cl)cc4)cc23)c1F` + CN(C)c1ccc(Nc2c3ccc(NC(=O)CCN4CCCC4)cc3nc3cc(NC(=O)CCN4CCCC4)ccc23)cc1, the viability, T/C was 16.9%.
On the same count and under the same terms, then `CC(C)n1c(=O)n(C)c2cnc3cc(F)c(-c4ccc(OCCCN5CCCCC5)nc4)cc3c21` + Cc1[nH]c2ccc(F)cc2c1-c1nc2c3cccnc3c3ncccc3c2[nH]1, with 94.1%; and `O=C(c1cc(Cc2n[nH]c(=O)c3ccccc23)ccc1F)N1CCN(C(=O)C2CC2)CC1` + Cc1[nH]c2ccc(F)cc2c1-c1nc2c3cccnc3c3ncccc3c2[nH]1, with 92%.

Staying with this assay, now noted: second compound 0.1 µM; first compound 0.0316 µM; stronger effect = lower value.
Take `CCCS(=O)(=O)Nc1ccc(F)c(C(=O)c2c[nH]c3ncc(-c4ccc(Cl)cc4)cc23)c1F` + CN(C)c1ccc(Nc2c3ccc(NC(=O)CCN4CCCC4)cc3nc3cc(NC(=O)CCN4CCCC4)ccc23)cc1: the viability, T/C is 68.1%.
Still for that read-out and setting: then `CC(C)n1c(=O)n(C)c2cnc3cc(F)c(-c4ccc(OCCCN5CCCCC5)nc4)cc3c21` + Cc1[nH]c2ccc(F)cc2c1-c1nc2c3cccnc3c3ncccc3c2[nH]1, with 101%; and `O=C(c1cc(Cc2n[nH]c(=O)c3ccccc23)ccc1F)N1CCN(C(=O)C2CC2)CC1` + Cc1[nH]c2ccc(F)cc2c1-c1nc2c3cccnc3c3ncccc3c2[nH]1, with 87.8%.

The assay is the same for the next values; noted with them: second compound 0.1 µM; first compound 0.1 µM; stronger effect = lower value.
With `CCCS(=O)(=O)Nc1ccc(F)c(C(=O)c2c[nH]c3ncc(-c4ccc(Cl)cc4)cc23)c1F` + CN(C)c1ccc(Nc2c3ccc(NC(=O)CCN4CCCC4)cc3nc3cc(NC(=O)CCN4CCCC4)ccc23)cc1, the viability, T/C was 56%.
Still for that read-out and setting: then `CC(C)n1c(=O)n(C)c2cnc3cc(F)c(-c4ccc(OCCCN5CCCCC5)nc4)cc3c21` + Cc1[nH]c2ccc(F)cc2c1-c1nc2c3cccnc3c3ncccc3c2[nH]1, with 118%; and `O=C(c1cc(Cc2n[nH]c(=O)c3ccccc23)ccc1F)N1CCN(C(=O)C2CC2)CC1` + Cc1[nH]c2ccc(F)cc2c1-c1nc2c3cccnc3c3ncccc3c2[nH]1, with 98.6%.

Still in this assay, the particulars now being: second compound 0.1 µM; first compound 0.316 µM; stronger effect = lower value.
Consider `CCCS(=O)(=O)Nc1ccc(F)c(C(=O)c2c[nH]c3ncc(-c4ccc(Cl)cc4)cc23)c1F` + CN(C)c1ccc(Nc2c3ccc(NC(=O)CCN4CCCC4)cc3nc3cc(NC(=O)CCN4CCCC4)ccc23)cc1, for which the viability, T/C was 59.3%.
For the compound `CC(C)n1c(=O)n(C)c2cnc3cc(F)c(-c4ccc(OCCCN5CCCCC5)nc4)cc3c21` + Cc1[nH]c2ccc(F)cc2c1-c1nc2c3cccnc3c3ncccc3c2[nH]1, the viability, T/C is 94.2%.
On the same count and under the same terms, the value for `O=C(c1cc(Cc2n[nH]c(=O)c3ccccc23)ccc1F)N1CCN(C(=O)C2CC2)CC1` + Cc1[nH]c2ccc(F)cc2c1-c1nc2c3cccnc3c3ncccc3c2[nH]1 was 99.2%.

The same assay, now with this note: second compound 0.1 µM; first compound 1 µM; stronger effect = lower value.
With `CCCS(=O)(=O)Nc1ccc(F)c(C(=O)c2c[nH]c3ncc(-c4ccc(Cl)cc4)cc23)c1F` + CN(C)c1ccc(Nc2c3ccc(NC(=O)CCN4CCCC4)cc3nc3cc(NC(=O)CCN4CCCC4)ccc23)cc1, the viability, T/C was 61.4%.
Still for that read-out and setting: then `CC(C)n1c(=O)n(C)c2cnc3cc(F)c(-c4ccc(OCCCN5CCCCC5)nc4)cc3c21` + Cc1[nH]c2ccc(F)cc2c1-c1nc2c3cccnc3c3ncccc3c2[nH]1, with 88.6%; and `O=C(c1cc(Cc2n[nH]c(=O)c3ccccc23)ccc1F)N1CCN(C(=O)C2CC2)CC1` + Cc1[nH]c2ccc(F)cc2c1-c1nc2c3cccnc3c3ncccc3c2[nH]1, with 99.6%.

The same assay, now with this note: second compound 0.1 µM; first compound 3.16 µM; stronger effect = lower value.
Take `CCCS(=O)(=O)Nc1ccc(F)c(C(=O)c2c[nH]c3ncc(-c4ccc(Cl)cc4)cc23)c1F` + CN(C)c1ccc(Nc2c3ccc(NC(=O)CCN4CCCC4)cc3nc3cc(NC(=O)CCN4CCCC4)ccc23)cc1: the viability, T/C is 52.8%.
The same measure, in the same setting: the value for `CC(C)n1c(=O)n(C)c2cnc3cc(F)c(-c4ccc(OCCCN5CCCCC5)nc4)cc3c21` + Cc1[nH]c2ccc(F)cc2c1-c1nc2c3cccnc3c3ncccc3c2[nH]1 was 118%.
Same read-out and setting: the value for `O=C(c1cc(Cc2n[nH]c(=O)c3ccccc23)ccc1F)N1CCN(C(=O)C2CC2)CC1` + Cc1[nH]c2ccc(F)cc2c1-c1nc2c3cccnc3c3ncccc3c2[nH]1 was 105%.

The same assay, now with this note: second compound 0.1 µM; first compound 10 µM; stronger effect = lower value.
On to `CCCS(=O)(=O)Nc1ccc(F)c(C(=O)c2c[nH]c3ncc(-c4ccc(Cl)cc4)cc23)c1F` + CN(C)c1ccc(Nc2c3ccc(NC(=O)CCN4CCCC4)cc3nc3cc(NC(=O)CCN4CCCC4)ccc23)cc1, for which the viability, T/C was 19.4%.
For `CC(C)n1c(=O)n(C)c2cnc3cc(F)c(-c4ccc(OCCCN5CCCCC5)nc4)cc3c21` + Cc1[nH]c2ccc(F)cc2c1-c1nc2c3cccnc3c3ncccc3c2[nH]1, the viability, T/C is 92.6%.
Consider `O=C(c1cc(Cc2n[nH]c(=O)c3ccccc23)ccc1F)N1CCN(C(=O)C2CC2)CC1` + Cc1[nH]c2ccc(F)cc2c1-c1nc2c3cccnc3c3ncccc3c2[nH]1, for which the viability, T/C was 89%.

Staying with this assay, now noted: second compound 0.316 µM; first compound 0.0316 µM; stronger effect = lower value.
For the compound `CCCS(=O)(=O)Nc1ccc(F)c(C(=O)c2c[nH]c3ncc(-c4ccc(Cl)cc4)cc23)c1F` + CN(C)c1ccc(Nc2c3ccc(NC(=O)CCN4CCCC4)cc3nc3cc(NC(=O)CCN4CCCC4)ccc23)cc1, the viability, T/C is 74.8%.
Same read-out and setting: the value for `CC(C)n1c(=O)n(C)c2cnc3cc(F)c(-c4ccc(OCCCN5CCCCC5)nc4)cc3c21` + Cc1[nH]c2ccc(F)cc2c1-c1nc2c3cccnc3c3ncccc3c2[nH]1 was 132%; that for `O=C(c1cc(Cc2n[nH]c(=O)c3ccccc23)ccc1F)N1CCN(C(=O)C2CC2)CC1` + Cc1[nH]c2ccc(F)cc2c1-c1nc2c3cccnc3c3ncccc3c2[nH]1 was 92.8%.

Still in this assay, the particulars now being: second compound 0.316 µM; first compound 0.1 µM; stronger effect = lower value.
Regarding `CCCS(=O)(=O)Nc1ccc(F)c(C(=O)c2c[nH]c3ncc(-c4ccc(Cl)cc4)cc23)c1F` + CN(C)c1ccc(Nc2c3ccc(NC(=O)CCN4CCCC4)cc3nc3cc(NC(=O)CCN4CCCC4)ccc23)cc1, the viability, T/C was 65.7%.
Still for that read-out and setting: then `CC(C)n1c(=O)n(C)c2cnc3cc(F)c(-c4ccc(OCCCN5CCCCC5)nc4)cc3c21` + Cc1[nH]c2ccc(F)cc2c1-c1nc2c3cccnc3c3ncccc3c2[nH]1, with 115%; and `O=C(c1cc(Cc2n[nH]c(=O)c3ccccc23)ccc1F)N1CCN(C(=O)C2CC2)CC1` + Cc1[nH]c2ccc(F)cc2c1-c1nc2c3cccnc3c3ncccc3c2[nH]1, with 115%.

The same assay, now with this note: second compound 0.316 µM; first compound 0.316 µM; stronger effect = lower value.
Take `CCCS(=O)(=O)Nc1ccc(F)c(C(=O)c2c[nH]c3ncc(-c4ccc(Cl)cc4)cc23)c1F` + CN(C)c1ccc(Nc2c3ccc(NC(=O)CCN4CCCC4)cc3nc3cc(NC(=O)CCN4CCCC4)ccc23)cc1: the viability, T/C was 74.7%.
The same measure, in the same setting: then `CC(C)n1c(=O)n(C)c2cnc3cc(F)c(-c4ccc(OCCCN5CCCCC5)nc4)cc3c21` + Cc1[nH]c2ccc(F)cc2c1-c1nc2c3cccnc3c3ncccc3c2[nH]1, with 100%; and `O=C(c1cc(Cc2n[nH]c(=O)c3ccccc23)ccc1F)N1CCN(C(=O)C2CC2)CC1` + Cc1[nH]c2ccc(F)cc2c1-c1nc2c3cccnc3c3ncccc3c2[nH]1, with 101%.
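Note: spheroids exposed to compounds for 7 days before readout; percent of vehicle DMSO control viability with 100% = untreated-like growth.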
